System: CYP706B1
Assay: (+)-d-cadinene hydroxylase activity assay, inhibitors and cofactor
Format: biochemical, Gossypium arboreum
Details: for sensitivity to inhibition: qualitative statement, taken as indication of a cytochrome P450
Protocol: The yeast Saccharomyces cerevisiae strain W(R), which overexpresses the yeast cytochrome P450 reductase when grow on galactose, and the expression vector pYeDP60 were provided by D. Pompon (Pompon et al (1996) Methods Enzymol. 272, 51-64). The cDNA of CYP706B1 was modified by PCR with a 5′-terminal primer 5ç-[…] (sense), in which a Kpn I site was introduced, and a 3′-terminal primer 5ç-[…] (reverse), in which a Sac I site was introduced. PCR was conducted on plasmid DNA by using Pyrobest™ DNA polymerase (TaKaRa). After digestion with the restriction enzymes, the fragment was inserted into pYeDP60. Plasmid DNA was introduced into yeast cells by a LiAc method, transformed yeast cells were then selected, cultured, and induced, and microsomes were prepared following a high density procedure (Pompon et al (1996) Methods Enzymol. 272, 51-64).
The (+)-d-cadinene hydroxylase activity assay was based on a published protocol for monoterpene P450 hydroxylases (Mihaliak et al. (1993) Methods Plant Biochem. 9, 261-279). The radioactive assay was conducted in […] of potassium phosphate buffer (50 mM, pH 7.4) containing 1 mM EDTA (pH 8.0), 0.4 M sucrose, 2 mM DTT, 0.1% BSA, 1 mM NADPH, 5 mM FAD, 5 mM FMN, 4 mM glucose-6-phosphate, 1 unit of glucose-6-phosphate dehydrogenase, […] ^3H-(+)-d-cadinene (32 mCi/mmol) and yeast microsomes (100^˜[…] protein). The reaction was started by adding the microsomes, incubated at 30° C. for 1 hr, and stopped by chilling on ice. The reaction mixture was extracted three times with […] hexane:ethyl acetate (1:1), the extract was filtered through a 0.2 g, 100^˜200 mesh silica gel column in a pasteur pipet, eluted with 1.5 mL hexane:ethyl acetate (1:1), and concentrated to ca […] with an argon stream. The entire sample was subjected to reversed phase HPLC on C18 silica (250×4.6 mm, […] particle diameter) with a gradient of 40:60 to 100:0 acetonitrile/water (v/v) over 60 min followed by 10 min of 100% acetonitrile, flow rate 1 mL/min. Tritium was detected by an on-line liquid scintillation counter (b-RAM, IN/US Systems, Inc., Tampa, Fla.). […]

SMILES	sensitivity to inhibition	inhibition of the hydroxylase activity (reaction mixture treated with a slow stream of CO for about 2 min, yeast microsomes containing CYP706B1)
[C-]#[O+] [CO, carbon monoxide]	sensitivity to inhibition	70%
Clc1ccc(COC(Cn2ccnc2)c2ccc(Cl)cc2Cl)c(Cl)c1 (stereo not drawn) [miconazole]	sensitivity to inhibition	

— patent US20020187538A1, “cDNA clone of (+)- delta-cadinene-8-hydroxylase gene from cotton plants” (priority 2001, published 2002)
